Data taken from US20080114005A1, “Fibrate Compounds Having Ppar Agonist Activity” (Dr. Reddy's Laboratories Limited, priority 2004, published 2008).
Counter-ions that a name gives are not always drawn.

Legend:
Swiss albino mice = experiment: plasma triglyceride lowering activity in Swiss albino mice; assay type: in vivo; conditions: 3.0 mg/kg orally for 6 days
Description: The properties of the derivatives of the invention were also evaluated in vivo. The following procedure was used to determine plasma triglyceride and total cholesterol lowering activity in Swiss albino mice.
Male Swiss albino mice (SAM) were obtained from National Institute Nutrition (NIN) and housed in Dr. Reddy's Laboratories Ltd (DRL) animal house. All these animals are maintained under 12 hour light and dark cycle at 25±1° C. Animals were given standard laboratory chow (NIN, Hyderabad, India) and water, ad libitum. SAM of 20-25 grams body weight range were used. See Oliver, P., Plancke, M. O., Marzin, D., Clavey, V., Sauzieres, J and Fruchart, J. C. Effects of fenofibrate, gemfibrozil and nicotinic acid on plasma lipoprotein levels in normal and hyperlipidemic mice, Atherosclerosis. 1988. 70: 107-114, incorporated herein by reference in its entirety. The test compounds can be administered orally to Swiss albino mice at the dose mentioned in table for 6 days. Control mice were treated with vehicle 0.25% Carboxymethylcellulose (CMC; dose 10 ml/kg). The blood samples from the retro-orbital sinus through heparinised capillary in EDTA containing tubes were collected in fed state 1 hour after drug administration on 0 and 6 days of treatment. After centrifugation plasma was separated for triglyceride measurement using commercial kits. See Wieland, O. Methods of Enzymatic analysis. Bergermeyer, H. O., Ed., 1963. 211-214; Trinder, P. Ann. Clin. Biochem. 1969. 6: 24-27, incorporated herein by reference in its entirety. Percent reduction was calculated as per the formula given in Petit, D., Bonnefis, M. T., Rey, C. and Infante, R. Effects of ciprofibrate on liver lipids and lipoprotein synthesis in normo- and hyperlipidemic rats. Atherosclerosis. 1988. 74 : 215-225.

[1] = test system: hypercholesterolemic rat model; experiment: plasma triglyceride and cholesterol lowering activity in hypercholesterolemic rat model; assay type: in vivo, Sprague Dawley rats; conditions: hypercholesterolemic rats, 3.0 mg/kg orally for 3 days; for Reduction (%) LDL: LDL cholesterol calculated by formula; for ↑HDL: increase of plasma HDL (under head Reduction (%)); for Reduction (%) TC: plasma total cholesterol; for Reduction (%) TG: plasma triglyceride
Description: The following procedure was used to determine plasma triglyceride and cholesterol lowering activity in hypercholesterolemic rat model.
Male Sprague Dawley rats (NIN stock) were bred in DRL animal house. Animals were maintained under 12 hour light and dark cycle at 25±1° C. Rats of 180-200 gram body weight range were used for the experiment. Animals are made hypercholesterolemic by feeding 2% cholesterol and 1% sodium cholate mixed with standard laboratory chow [National Institute of Nutrition (NIN), Hyderabad, India] for 6 days. Throughout the experimental period the animals were maintained on the same diet. The test compounds were administered orally at a dose mentioned in table for 3 days. Control group was treated with vehicle alone (0.25% CMC; 10 ml/kg). The blood samples were collected in fed state 1 hour after drug administration on 0 and 3 days of compound treatment. The blood was collected from the retro-orbital sinus through heparinised capillary in EDTA containing tubes. After centrifugation, plasma sample was separated for total cholesterol, HDL and triglyceride estimations. Measurement of plasma triglyceride, total cholesterol and HDL were done using commercial kits. LDL and VLDL cholesterol can be calculated from the data obtained for total cholesterol, HDL and triglyceride.
The percent reductions in blood sugar/triglycerides/total cholesterol were calculated according to the following formula:
OC=Zero day control group value
OT=Zero day treated group value
TC=Test day control group value
T=Test day treated group value.
The levels of LDL and VLDL cholesterol were calculated according to the formula:
VLDL cholesterol in mg/dl=[Total cholesterol-HDL cholesterol-LDL cholesterol] mg/dl.

human PPARα = target: T1, human PPARα (Homo sapiens, UniProt Q07869); experiment: in vitro PPARα transactivation, GAL4-LBD luciferase reporter in HEK-293 cells; assay type: cell-based; conditions: luciferase fold activation relative to untreated cells
T1 construct: expressed in transfected cells; host or cells: HEK-293
T1 sequence (Q07869 239-466 limits assumed): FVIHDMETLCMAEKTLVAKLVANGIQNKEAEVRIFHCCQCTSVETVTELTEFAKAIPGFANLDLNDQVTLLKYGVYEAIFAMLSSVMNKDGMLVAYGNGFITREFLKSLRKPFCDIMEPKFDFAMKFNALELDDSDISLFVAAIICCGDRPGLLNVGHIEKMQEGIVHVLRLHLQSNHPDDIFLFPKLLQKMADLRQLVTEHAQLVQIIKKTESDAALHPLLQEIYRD
From the text: A number of derivatives of the invention have shown PPAR agonist activity. The following procedure was used for in vitro determination of PPARα, γ and δ transactivation.
(§1) The ligand binding domain of human PPARγ1, PPARα or PPARδ was fused to the C-terminal end of DNA binding domain of yeast transcription factor GAL4 in eukaryotic expression vector. HEK-293 cells were transfected with either of these plasmids, reporter plasmid pGL2 (Gal4×5)˜SV40˜Luc and pAdVantage using superfect (Qiagen, Germany) for 3 hours. pAdVantage vector was used to enhance the luciferase expression. 48 hours after transfection, the cells were harvested and incubated overnight with or without test compounds at different concentrations. The cells were lysed and luciferase activity was measured using the LucLite kit (Packard USA). Luciferase activity was measured as fold activation relative to untreated cells.

human PPARδ = target: T2, human PPARδ (Homo sapiens, UniProt Q03181); experiment: in vitro PPARδ transactivation, GAL4-LBD luciferase reporter in HEK-293 cells; assay type: cell-based; conditions: luciferase fold activation relative to untreated cells
T2 construct: expressed in transfected cells; host or cells: HEK-293
T2 sequence (Q03181 211-439 limits assumed): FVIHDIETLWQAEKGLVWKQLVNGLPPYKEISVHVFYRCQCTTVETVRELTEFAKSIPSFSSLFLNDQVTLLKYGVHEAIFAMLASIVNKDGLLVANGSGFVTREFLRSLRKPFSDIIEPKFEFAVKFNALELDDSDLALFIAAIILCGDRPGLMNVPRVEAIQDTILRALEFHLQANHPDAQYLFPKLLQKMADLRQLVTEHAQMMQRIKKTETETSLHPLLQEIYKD
Description: (§2) The following procedure was used for in vitro determination of PPARα, γ and δ transactivation.
as §1

human PPARγ1 = target: T3, human PPARγ1 (Homo sapiens, UniProt P37231); experiment: in vitro PPARγ transactivation, GAL4-LBD luciferase reporter in HEK-293 cells; assay type: cell-based; conditions: luciferase fold activation relative to untreated cells
T3 construct: expressed in transfected cells; host or cells: HEK-293
T3 sequence (P37231 238-503 limits assumed): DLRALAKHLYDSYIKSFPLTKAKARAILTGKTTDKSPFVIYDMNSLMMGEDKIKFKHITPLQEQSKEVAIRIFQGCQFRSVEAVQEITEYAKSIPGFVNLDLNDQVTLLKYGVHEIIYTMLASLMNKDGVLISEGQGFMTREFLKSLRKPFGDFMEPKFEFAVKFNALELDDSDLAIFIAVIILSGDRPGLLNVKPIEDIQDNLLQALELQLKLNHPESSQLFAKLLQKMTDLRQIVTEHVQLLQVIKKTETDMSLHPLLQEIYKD
Description: as §2, §1

PPARα activation (human PPARα; test compound at 1 μM) | PPARα activation (human PPARα; test compound at 10 μM) | PPARδ activation (human PPARδ; test compound at 1 μM) | PPARδ activation (human PPARδ; test compound at 10 μM) | melting point | PPARγ activation (human PPARγ1; test compound at 1 μM) | PPARγ activation (human PPARγ1; test compound at 10 μM) | Compound | % reduction in TG (Swiss albino mice) | Reduction (%) LDL [1] | ↑HDL [1] | Reduction (%) TC [1] | Reduction (%) TG [1] | Reduction (%) LDL ([1]; 3 mg/kg) | ↑HDL ([1]; 3 mg/kg) | Reduction (%) TC ([1]; 3 mg/kg) | Reduction (%) TG ([1]; 3 mg/kg) | % reduction in TG (Swiss albino mice; 3 mg/kg)
2.1 | 7.4 | 0 | 0.4 | 140 to 142 °C | 0(54.5) | 0(62.8) | CCCc1nn(C)c2c(=O)n(CCOc3cccc(OC(C)(C)C(=O)O)c3)c(C)nc12 [Example 89, 2-{3-[2-(1,5-Dimethyl-7-oxo-3-propyl-1,7-dihydro-pyrazolo[4,3-d]pyrimidin-6-yl)-ethoxy]-phenoxy}-2-methyl-propionic acid] | 60% | 68% | 102% | 65% | 68% |  |  |  |  | 
 |  |  |  | 118 to 120 °C |  |  | CCCc1nn(C)c2c(=O)n(CCOc3cccc(O[C@](C)(CC)C(=O)O)c3)c(C)nc12 [Example 100, R-(+)-2-{3-[2-(1,5-Dimethyl-7-oxo-3-propyl-1,7-dihydro-pyrazolo[4,3-d]pyrimidin-6-yl)-ethoxy]-phenoxy}-2-methyl-butyric acid] | 76% | 76% | 145% | 70% | 60% |  |  |  |  | 
3.9 | 5.2 | 1.7 | 1.3 | 98 to 100 °C |  |  | CCCc1nn(C)c2c(=O)n(CCOc3cc(O[C@](C)(CC)C(=O)O)ccc3Cl)c(C)nc12 [Example 102, R-(+)-2-{4-Chloro-3-[2-(1,5-dimethyl-7-oxo-3-propyl-1,7-dihydro-pyrazolo[4,3-d]pyrimidin-6-yl)-ethoxy]-phenoxy}-2-methyl-butyric acid] | 67% | 55% | 45% | 51% | 51% |  |  |  |  | 
 |  |  |  | 119 to 120 °C |  |  | CCCc1nn(C)c2c(=O)n(CCOc3cccc(O[C@@](C)(CC)C(=O)O)c3)c(C)nc12 [Example 104, S-(−)-2-{3-[2-(1,5-Dimethyl-7-oxo-3-propyl-1,7-dihydro-pyrazolo[4,3-d]pyrimidin-6-yl)-ethoxy]-phenoxy}-2-methyl-butyric acid] | 70% | 77% | 158% | 71% | 72% |  |  |  |  | 

The next lines start with the compound.

Compound | PPARα activation (human PPARα; test compound at 1 μM) | PPARα activation (human PPARα; test compound at 10 μM) | PPARδ activation (human PPARδ; test compound at 1 μM) | PPARδ activation (human PPARδ; test compound at 10 μM) | melting point | PPARγ activation (human PPARγ1; test compound at 1 μM) | PPARγ activation (human PPARγ1; test compound at 10 μM) | % reduction in TG (Swiss albino mice) | Reduction (%) LDL [1] | ↑HDL [1] | Reduction (%) TC [1] | Reduction (%) TG [1] | Reduction (%) LDL ([1]; 3 mg/kg) | ↑HDL ([1]; 3 mg/kg) | Reduction (%) TC ([1]; 3 mg/kg) | Reduction (%) TG ([1]; 3 mg/kg) | % reduction in TG (Swiss albino mice; 3 mg/kg)
CCCc1nn(C)c2c(=O)n(CCCc3ccc(OC(C)(C)C(=O)O)cc3)c(C)nc12.N=C(N)NCCC[C@H](N)C(=O)O [Example 79, Argenine salt of 2-{4-[3-(1,5-dimethyl-7-oxo-3-propyl-1,7-dihydro-pyrazolo[4,3-d]pyrimidin-6-yl)-propyl]-phenoxy}-2-methyl-propionic acid] |  |  |  |  |  |  |  | 55% |  |  |  |  |  |  |  |  | 
CCCc1nn(C)c2c(=O)n(CCCc3cccc(OC(C)(C)C(=O)O)c3)c(C)nc12.N=C(N)NCCC[C@H](N)C(=O)O [Example 82, Argenine salt of 2-{3-[3-(1,5-dimethyl-7-oxo-3-propyl-1,7-dihydro-pyrazolo[4,3-d]pyrimidin-6-yl)-propyl]-phenoxy}-2-methyl-propionic acid] | 7.1 | 8.4 | 0 | 0 |  |  |  | 81% | 72% | 48% | 68% | 69% |  |  |  |  | 
CCCc1nn(C)c2c(=O)n(CCOc3cccc(OC(C)(C)C(=O)OCC)c3)c(C)nc12 [Example 88, 2-{3-[2-(1,5-Dimethyl-7-oxo-3-propyl-1,7-dihydro-pyrazolo[4,3-d]pyrimidin-6-yl)-ethoxy]-phenoxy}-2-methyl-propionic acid ethyl ester] | 1.6 | 3.6 | 0.3 | 0.6 | 86 to 88 °C |  |  |  |  |  |  |  |  |  |  |  | 
CCCc1nn(C)c2c(=O)n(CCCc3ccc(OC(C)(CC)C(=O)O)cc3)c(C)nc12 (centres unmarked) [Example 95, 2-{4-[3-(1,5-Dimethyl-7-oxo-3-propyl-1,7-dihydro-pyrazolo[4,3-d]pyrimidin-6-yl)-propyl]-phenoxy}-2-methyl-butyric acid] | 6.4 | 7.3 | 0.1 | 4.0 |  | 17.3(85.5) | 36.6(110.3) |  |  |  |  |  | 69% | 212% | 64% | 67% | 63%
CCCc1nn(C)c2c(=O)n(CCCc3ccc(OC(C)(CC)C(=O)O)cc3)c(C)nc12 (centres unmarked) [Example 96, Magnesium salt of 2-{4-[3-(1,5-dimethyl-7-oxo-3-propyl-1,7-dihydro-pyrazolo[4,3-d]pyrimidin-6-yl)-propyl]-phenoxy}-2-methyl-butyric acid] |  |  |  |  |  |  |  |  |  |  |  |  | 67% | 162% | 63% | 76% | 60%
